Laboratory results taken from patent US10174052B2, “Quinuclidine compounds as α-7 nicotinic acetylcholine receptor ligands” (BRISTOL-MYERS SQUIBB COMPANY, priority 2014, dated 2019).

Target: T1, α7 nicotinic ACh receptor ion channel expressed in mammalian HEK 293 cells (Rattus norvegicus, UniProt Q05941)
T1 construct: expressed in transfected cells
Test: Ca2+-sensitive fluorescence-based assay for α7 nicotinic acetylcholine receptor channel function (FLIPR), agonist activity
Format: cell-based
Details: HEK 293 cells, Ca2+ flux
Experimental: II) A Ca^2+-Sensitive, Fluorescence-Based Assay α-7 for Nicotinic Acetylcholine Receptor Channel Function in Mammalian Cells (“FLIPR”).
Lead compounds are evaluated for agonist activity at the α7 nicotinic ACh receptor ion channel expressed in mammalian HEK 293 cells. Agonist potency and efficacy values are determined from kinetic fluorescence Ca^2+ influx measurements made using a 384 well FLIPR (Fluorescence Image Plate Reader). The utility of fluorescent indicators for measuring changes in intracellular divalent cation concentrations, particularly Ca^2+, for drug discovery endeavors is well documented (Rudiger, R., et al., Nature Reviews, 2003, 4:579-586; Gonzalez J. E., et al., Receptors and Channels, 2002, 8:283-295). In this assay, channel expressing HEK cell lines seeded in 384 well assay plates are loaded with a membrane permeant fluorescent Ca^2+ indicator dye, whose 510 nm green emission signal increases in response to elevation of intracellular Ca^2+ concentration. The basal fluorescence from the cells is monitored in real time, followed by the acute addition of test compounds. If the compound is an agonist at any of the non-selective cation channels, the latter open and allow the movement of extracellular Ca^2+ ions into the cell cytoplasm, where they bind to the Ca^2+ indicator dye, and produce an increase in fluorescence output signal, which is detected by a cooled CCD imaging camera.
Reagents: The acetomethoxy (AM) ester of the Ca^2+ indicator dye Fluo-4 was obtained from InVitrogen, (Carlsbad, Calif.). Acetylcholine and all buffer constituents were purchased from Sigma Chemical Company, St. Louis, Mo. G418 and Minimal Essential Medium were purchased from InVitrogen Life Technologies, Carlsbad, Calif. Fetal bovine serum was purchased from (InVitrogen, Carlsbad, Calif.).
HEK-293 cells were grown in Minimal Essential Medium containing 10% (v/v) fetal bovine serum at 37° C. in a 5% CO2 incubator. HEK-293 cells stably expressing the ion channels were grown in the same medium with the addition of 500 μg/ml G418.
HEK-293 cells expressing the ion channels of interest were plated in 384 well, black-walled, clear-bottomed, poly-D-lysine coated plates at a density of ˜20,000 cells/well in 20 μl of Minimal Essential Medium containing 10% (v/v) fetal bovine serum and incubated for 2 days at 29° C. in a 5% CO2 incubator. Prior to assay, cells were loaded with the Fluo-4 AM ester. Cell loading was accomplished by removing the culture medium and replacing it with 30 μl/well of the AM ester of the dye (5 μM) mixed with Hanks Balanced Salt Solution (#14175-095) containing 20 mM HEPES, 2.5 mM probenecid, 0.5 mM CaCl2, 1 mM MgCl2 and 10 μM atropine. Dye loading was allowed to proceed for 90 minutes at room temperature at which time the dye loading solution was removed and replaced with 40 μl/well of Hanks buffer. Cells loaded with dye were loaded onto a FLIPR384 (Molecular Devices, Sunnyvale, Calif.). Fluo-4 dye was excited using the 488 nm line of an argon laser. Emission was filtered using a 540+/−30 nm bandpass filter. For evaluation of the effects of test compounds using the Ca^2+ flux assay, compounds to be tested were provided in assay ready plates. For nicotinic receptor ion channel expressing cells, the assay was initiated by the addition of 20 μl/well of Hanks buffer containing test compounds. For all assays, data were collected at 1 Hz for 10 seconds (baseline), at which time the compound containing stimulus buffers are added, and further measurements collected at 0.33 Hz for 3 min.
The statistical robustness of the nicotinic receptor Ca^2+ flux assays is determined from blanks and totals wells. The totals wells define maximal channel activation for each compound test plate (Maximum efficacious dose of acetylcholine), and the blanks wells which contain matched DMSO only, define zero channel activation. […]

[1] = FLIPR α7 (EC50, nM), agonist potency
[2] = FLIPR α7 activity rating (EC50, nM), class rating of EC50

T1 sequence (Q05941 23-502): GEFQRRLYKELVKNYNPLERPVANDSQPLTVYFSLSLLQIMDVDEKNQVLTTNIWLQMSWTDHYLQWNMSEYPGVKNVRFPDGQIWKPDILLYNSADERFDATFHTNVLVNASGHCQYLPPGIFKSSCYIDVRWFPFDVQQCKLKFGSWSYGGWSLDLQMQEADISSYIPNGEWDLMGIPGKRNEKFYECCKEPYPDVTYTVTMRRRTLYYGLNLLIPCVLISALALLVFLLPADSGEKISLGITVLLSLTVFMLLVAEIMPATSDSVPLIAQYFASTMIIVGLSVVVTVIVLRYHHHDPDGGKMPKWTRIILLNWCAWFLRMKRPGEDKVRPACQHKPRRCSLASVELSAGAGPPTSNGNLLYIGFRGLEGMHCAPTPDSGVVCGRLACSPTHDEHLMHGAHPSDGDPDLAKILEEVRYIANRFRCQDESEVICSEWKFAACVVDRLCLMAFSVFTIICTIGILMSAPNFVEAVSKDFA

| SMILES | EC50 [1] | EC50 [2] |
| --- | --- | --- |
| c1ccc(-c2cn3c(n2)O[C@]2(CN4CCC2CC4)C3)cc1 [Example 21b, (R)-6-Phenyl-3H-1′-azaspiro[imidazo[2,1-b]oxazole-2,3′-bicyclo[2.2.2]octane]] | 53 nM | < 100 nM |
| COc1ccc2c(c1)nc1n2C[C@@]2(CN3CCC2CC3)O1 (single isomer, unassigned) [Example 6b] | 10.3 nM | < 100 nM |
| FC(F)(F)c1cccc2c1nc1n2C[C@]2(CN3CCC2CC3)O1 (single isomer, unassigned) [Example 11a] | 32500 nM | 1000 to 100000 nM |
| COc1ccc(-c2cccc3c2nc2n3C[C@@]3(CN4CCC3CC4)O2)cc1 (single isomer, unassigned) [Example 12b] | 28 nM | < 100 nM |
